Test results: patent publication US20240269128A1, “COMPOUNDS FOR TREATING OR PREVENTING ALZHEIMER'S DISEASE” (THE UNITED STATES OF AMERICA, as represented by the …, priority 2021, published 2024)

How the values were obtained:
STAT3 = target: T1, STAT3 (Homo sapiens, UniProt P40763); assay: Western blot of total and phosphorylated STAT3 in human cell lines; type: cell-based; details: 50 μM; for p-STAT3 (Tyr705 and Ser727) / total STAT3: 48 hours
T1 construct: endogenous in cells; host or cells: HMC3 (ATCC CRL-3304), 1321N1 (Sigma-Aldrich), SK-N-BE(2)-M17 (ATCC CRL-2267)
Description: Cell and neuron cultures: Immortalized human microglia HMC3 cells (ATCC CRL-3304) and astrocytoma 1321N1 cells (Sigma-Aldrich; derived from human brain astrocytoma; Macintyre et al., 1972) were cultured in Eagle's minimum essential medium (EMEM) supplemented with 10% fetal bovine serum (FBS, Gibco) and 1% antibiotics and antimycotics (Gibco). Neuroblastoma SK-N-BE(2)-M17 (M17) (ATCC CRL-2267) cells were cultured in a 1:1 mixture of EMEM and F12 media, supplemented with 10% FBS plus 1% antibiotics and antimycotics.
HCQ treatment: Treatment with hydroxychloroquine Sulfate (Selleckchem, Catalog No.S4430) was performed at 50 μM concentration.
Western blot analysis: Protein extracts were obtained by lysing cells with a denaturing buffer containing 2% sodium dodecyl sulfate (SDS) (Sigma-Aldrich) in 50 mM HEPES. After boiling and sonication, whole-cell protein extracts were size-fractionated through polyacrylamide gels and transferred to nitrocellulose membranes (Bio-Rad). Membranes were blocked with 5% non-fat dry milk and immunoblotted. Primary antibodies were employed that recognized total STAT3 (124H6) (Cell Signaling, 9139T), phosphorylated STAT3 (Tyr705) (D3A7) XP® (Cell Signaling, 9145S), and phosphorylated STAT3 (Ser727) (Cell Signaling, 94994S).
Statistical analysis: Digitized images were obtained, processed, and quantified with ImageLab version 6.1 (BioRad Laboratories).

[1] = system: Primary hippocampal neurons; assay: Aβ toxicity assay; type: cell-based, mouse; details: HCQ 25, 2.5 or 0.25 μM
Description: Aβ toxicity: Primary hippocampal neurons were prepared from E18.5 timed pregnant C57BL/6JRccHsd mice as previously described. Cells were seeded in poly-D-lysine pre-coated 96-well plates at a density of 4×10^4 cells/well and cultivated until DIV10 (Neurobasal, 2% B-27, 0.5 mM glutamine, 25 μM glutamate, 1% Penicillin-Streptomycin). On DIV10 pre-aggregated Aβ1-42 (Bachem 4061966, final concentration 10 μM, 48 h at 4° C.) was added to the cells in the presence or absence of Hydroxychloroquine sulfate (TargetMol, T0951) at 25 μM, 2.5 μM or 0.25 μM concentrations. On DIV16 cells were subject to MTT assay to determine cell viability.

[2] = system: Alzheimer's disease and related dementia (ADRD) in rheumatoid arthritis patients; assay: Medicare claims cohort study of incident ADRD, HCQ vs methotrexate; type: in vivo, human
From the text: The full study protocol for patient-level analysis in Medicare claims was pre-registered on clinicaltrials.gov prior to data analysis (NCT04691505) and contains detailed information on implementation including all codes that were used to identify study variables to allow future replication. The following sections summarize key methodologic details. Data source: Medicare Fee-For-Service claims data from 2007 through 2017 were used. Medicare Part A (hospitalizations), B (medical services), and D (prescription medications) claims are available for research purposes through the Centers for Medicare and Medicaid Services. A signed data use agreement with the CMS was available and the Brigham and Women's Hospital's Institutional Review Board approved this study. Study cohort: A new user, active comparator, observational cohort study design comparing methotrexate to hydroxychloroquine was employed. The patients were required to have continuous enrollment in Medicare parts A, B, and D during the baseline period of 365 days before initiation date of methotrexate or hydroxychloroquine, which was defined as the cohort entry date. Patients were required to have ≥1 diagnosis codes of rheumatoid arthritis during the baseline period but no prior use of any disease modifying antirheumatic treatments. Patients with existing diagnosis of Alzheimer's disease and related dementia (ADRD) any time prior to and including cohort entry date were excluded to focus on incident events. Patients with nursing home admission in 365 days prior to and including cohort entry date also were excluded as medication records for short nursing home stays are unavailable in Medicare claims. Outcome measurement: The endpoint of ADRD was identified based on diagnosis codes, recorded on 1 inpatient claim or 2 outpatient claims, of Alzheimer's disease, vascular dementia, senile, presenile, or unspecified dementia, or dementia in other diseases classified elsewhere. […] Alternative analytic approaches: To accommodate various uncertainties involved in pharmacoepidemiologic investigations focused on ADRD risk, the following alternative analyses were employed. Analysis 1—‘As-treated’ follow-up approach: In this approach, the follow-up started on the day following the cohort entry date and continued until treatment discontinuation or switch (to comparator treatment), insurance disenrollment, death, or administrative endpoint (December 2017). A 90-day ‘grace period’ after the end of the expected days-supply of the most recently filled prescription was considered to define the treatment discontinuation date to accommodate for suboptimal adherence during treatment periods. […] This follow-up approach addresses concerns related to informative censoring if patients discontinue or if physicians de-prescribe the treatments under consideration because of memory problems associated with ADRD, but the diagnosis is not recorded in the electronic healthcare records until after the end of follow-up due to treatment-related censoring. Analysis 3—incorporating a 6-month ‘symptoms to diagnosis’ period: In this approach, an outcome date was assigned that was 6 months before the first recorded ADRD date and excluded last 6 months of follow-up for those who are censored without an event to account for the possibility that ADRD symptoms likely appear some time before a formal diagnosis is recorded in insurance records, which leads to misclassification of ADRD onset. […]

T1 sequence (P40763 whole entry): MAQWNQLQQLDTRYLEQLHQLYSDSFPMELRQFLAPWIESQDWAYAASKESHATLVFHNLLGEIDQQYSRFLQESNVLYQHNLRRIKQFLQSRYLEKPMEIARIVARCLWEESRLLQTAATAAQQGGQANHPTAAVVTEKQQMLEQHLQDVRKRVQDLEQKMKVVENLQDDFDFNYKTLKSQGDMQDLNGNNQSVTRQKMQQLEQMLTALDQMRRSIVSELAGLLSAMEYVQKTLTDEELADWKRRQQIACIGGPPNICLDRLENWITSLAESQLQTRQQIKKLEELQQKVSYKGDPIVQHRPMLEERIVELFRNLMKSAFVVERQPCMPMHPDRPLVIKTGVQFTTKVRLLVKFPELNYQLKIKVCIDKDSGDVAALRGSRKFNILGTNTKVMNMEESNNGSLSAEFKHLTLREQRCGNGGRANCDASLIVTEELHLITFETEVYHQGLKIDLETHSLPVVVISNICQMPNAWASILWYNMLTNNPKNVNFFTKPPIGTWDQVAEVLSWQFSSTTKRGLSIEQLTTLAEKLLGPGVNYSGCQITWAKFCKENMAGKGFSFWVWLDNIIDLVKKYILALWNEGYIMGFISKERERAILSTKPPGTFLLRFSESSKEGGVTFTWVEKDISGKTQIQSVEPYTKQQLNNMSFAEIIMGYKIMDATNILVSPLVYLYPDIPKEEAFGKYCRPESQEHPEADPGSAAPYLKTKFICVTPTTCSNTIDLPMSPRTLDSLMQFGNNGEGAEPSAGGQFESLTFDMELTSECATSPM

## CCN(CCO)CCCC(C)Nc1ccnc2cc(Cl)ccc12 (stereo not drawn) [HCQ, hydroxychloroquine]
STAT3
  cell viability: did not have adverse effects on cell viability
STAT3; 1321N1 cells
  p-STAT3 (Tyr705 and Ser727): reduced
  total STAT3: without alteration
STAT3; HMC3 cells
  p-STAT3 (Tyr705 and Ser727): reduced
  total STAT3: without alteration
STAT3; SK-N-BE(2)-M17 cells
  phosphorylated STAT3 and total STAT3: non-significant
[1]
  toxicity due to exogenous Aβ: no effects
[2]; Analysis 1, as-treated, vs MTX initiators
  lower risk of ADRD: 8%
[2]; Analysis 2, as-started, 6-month induction period
  lower risk of ADRD: 13%
[2]; Analysis 3, 6-month symptom to claims period
  lower risk of ADRD: 16%
[2]; after approximately 2 years of treatment, compared to MTX, all four analyses
  cumulative incidence of ADRD: lower cumulative incidence
[2]; relative to methotrexate, across analyses
  lowering of incident AD: 8-16%
